Measurements published in ChEMBL document CHEMBL3779893, “Identification of novel GLUT inhibitors” (Bioorg Med Chem Lett, 2016).

How the values were obtained:
[1] = molecular target: T1, Solute carrier family 2, facilitated glucose transporter member 1 (Homo sapiens, UniProt P11166); test: Inhibition of human GLUT1 expressed in DLD1 cells assessed as ATP production co-incubated with 100 mM glucose for 16 hrs by CellTiter-Glo assay in presence of oxidative phosphorylation inhibitor rotenone; type: cell-based, DLD-1
T1 sequence (P11166 whole entry): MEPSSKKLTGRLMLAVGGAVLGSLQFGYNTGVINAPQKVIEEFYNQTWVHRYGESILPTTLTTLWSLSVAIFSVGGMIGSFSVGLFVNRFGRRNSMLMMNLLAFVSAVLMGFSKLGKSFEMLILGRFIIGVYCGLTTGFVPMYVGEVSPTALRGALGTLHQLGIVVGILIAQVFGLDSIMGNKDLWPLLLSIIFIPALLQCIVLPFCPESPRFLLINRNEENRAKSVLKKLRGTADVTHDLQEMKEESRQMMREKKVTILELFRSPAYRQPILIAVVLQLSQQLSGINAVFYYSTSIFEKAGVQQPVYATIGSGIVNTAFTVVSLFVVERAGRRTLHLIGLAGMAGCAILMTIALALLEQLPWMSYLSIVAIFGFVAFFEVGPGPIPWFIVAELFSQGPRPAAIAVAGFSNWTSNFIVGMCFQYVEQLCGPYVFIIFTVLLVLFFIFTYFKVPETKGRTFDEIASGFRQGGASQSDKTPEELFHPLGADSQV

[2] = molecular target: T2, Solute carrier family 2, facilitated glucose transporter member 2 (Homo sapiens, UniProt P11168); test: Inhibition of human GLUT2 expressed in CHO cells assessed as ATP production co-incubated with 30 mM fructose for 16 hrs by CellTiter-Glo assay in presence of oxidative phosphorylation inhibitor rotenone; type: cell-based
T2 sequence (P11168 whole entry): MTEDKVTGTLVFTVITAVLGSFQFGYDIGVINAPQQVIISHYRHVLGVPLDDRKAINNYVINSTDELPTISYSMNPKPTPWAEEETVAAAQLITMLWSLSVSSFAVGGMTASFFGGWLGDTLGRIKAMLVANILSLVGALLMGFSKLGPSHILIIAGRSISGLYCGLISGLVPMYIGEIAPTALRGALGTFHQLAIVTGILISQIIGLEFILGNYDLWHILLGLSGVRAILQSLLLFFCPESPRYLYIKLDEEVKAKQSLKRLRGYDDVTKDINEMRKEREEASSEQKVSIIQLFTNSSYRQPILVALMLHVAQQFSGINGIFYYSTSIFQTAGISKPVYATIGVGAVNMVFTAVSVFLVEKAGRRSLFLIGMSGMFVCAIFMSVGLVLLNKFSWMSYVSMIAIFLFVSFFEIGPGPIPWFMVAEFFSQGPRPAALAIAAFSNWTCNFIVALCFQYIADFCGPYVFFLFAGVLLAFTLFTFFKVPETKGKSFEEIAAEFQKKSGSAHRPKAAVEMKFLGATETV

[3] = molecular target: T3, Solute carrier family 2, facilitated glucose transporter member 3 (Homo sapiens, UniProt P11169); test: Inhibition of human GLUT3 expressed in GLUT1 knock-out DLD1 cells assessed as ATP production co-incubated with 300 mM glucose for 16 hrs by CellTiter-Glo assay in presence of oxidative phosphorylation inhibitor rotenone; type: cell-based, DLD-1
T3 sequence (P11169 whole entry): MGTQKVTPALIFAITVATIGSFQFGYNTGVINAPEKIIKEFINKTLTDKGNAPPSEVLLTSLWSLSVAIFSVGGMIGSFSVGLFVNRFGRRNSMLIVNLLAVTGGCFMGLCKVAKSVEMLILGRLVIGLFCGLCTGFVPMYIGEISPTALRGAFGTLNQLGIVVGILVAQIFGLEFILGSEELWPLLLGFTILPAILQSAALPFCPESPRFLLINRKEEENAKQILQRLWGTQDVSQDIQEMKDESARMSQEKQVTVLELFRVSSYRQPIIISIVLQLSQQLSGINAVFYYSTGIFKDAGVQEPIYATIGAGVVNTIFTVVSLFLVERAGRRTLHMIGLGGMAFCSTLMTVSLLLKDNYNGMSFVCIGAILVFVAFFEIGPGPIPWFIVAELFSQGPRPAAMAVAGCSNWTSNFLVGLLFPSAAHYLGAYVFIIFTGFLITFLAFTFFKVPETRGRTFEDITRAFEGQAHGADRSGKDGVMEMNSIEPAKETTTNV

Structure (SMILES) | IC50 [1] [nM] | IC50 [2] [nM] | IC50 [3] [nM]
COc1ccccc1N1CCN(c2ncnc3c2cnn3-c2ccc(C)cc2)CC1 | 1500 | 10000 | 3000
COc1ccccc1N1C[C@H]2C[C@@H]1CN2c1ncnc2c1cnn2-c1ccccc1 | > 10000 | > 10000 | > 10000
COc1ccccc1N1CC2(C1)CN(c1ncnc3c1cnn3-c1ccccc1)C2 | 4400 |  | 2200
COc1ccccc1N1CCN(c2ncnc3c2cnn3-c2ccccn2)CC1 | 510 | 8000 | 940
FC(F)(F)Oc1ccccc1N1CCN(c2ncnc3c2cnn3-c2ccccc2)CC1 | > 10000 | > 10000 | > 10000
Fc1ccccc1N1CCN(c2ncnc3c2cnn3-c2ccccc2)CC1 | 270 | 1120 | 680
COc1ccc(N2CCN(c3ncnc4c3cnn4-c3ccccc3)CC2)cc1 | 1770 | 8700 | 1770
COc1ccccc1N1CCN(c2ncnc3c2cnn3C(C)c2ccccc2)CC1 (stereo not given) | 410 | 2100 | 950
COc1ccccc1N1C[C@@H]2C[C@H]1CN2c1ncnc2c1cnn2-c1ccccc1 | 2300 | > 10000 | 4100
COc1ccccc1N1CCN(c2ccnc3c2cnn3-c2ccccc2)CC1 | 300 | 600 | 4000
COc1ncccc1N1CCN(c2ncnc3c2cnn3-c2ccccc2)CC1 | 180 | 1360 | 680
COc1cccc(-n2ncc3c(N4CCN(c5ccccc5OC)CC4)ncnc32)c1 | 200 | 900 | 170
COc1ccccc1N1CCN(c2ncnc3c2cnn3-c2ccncc2)CC1 | 1200 | 4400 | 1600
OC1CCCCC1N1CCN(c2ncnc3c2cnn3-c2ccccc2)CC1 (stereo not given) | > 10000 | > 10000 | > 10000
N#Cc1ccccc1N1CCN(c2ncnc3c2cnn3-c2ccccc2)CC1 | 1810 | 5990 | 2050
COc1c(F)cccc1N1CCN(c2ncnc3c2cnn3-c2ccccc2)CC1 | 2400 | > 10000 | 10000
COc1ccccc1N1CCC(c2ncnc3c2cnn3-c2ccccc2)CC1 | 470 |  | 1200
COc1c(C#N)cccc1N1CCN(c2ncnc3c2cnn3-c2ccccc2)CC1 | 1200 | > 10000 | 540
FC(F)(F)c1ccccc1N1CCN(c2ncnc3c2cnn3-c2ccccc2)CC1 | > 10000 | > 10000 | > 10000
COc1ccc(-n2ncc3c(N4CCN(c5ccccc5OC)CC4)ncnc32)cc1 | 230 | 2600 | 170
COc1ccccc1C1CCN(c2ncnc3c2cnn3-c2ccccc2)CC1 | 1900 | > 10000 | > 10000
COc1ccccc1N1CCN(c2nccc3c2cnn3-c2ccccc2)CC1 | 4000 | 5000 | 2000
COc1ccccc1N1CCN(c2ncnc3c2cnn3-c2cccnc2)CC1 | 750 | 6000 | 1500
COc1cccc(N2CCN(c3ncnc4c3cnn4-c3ccccc3)CC2)c1 | 180 | 1480 | 320
COc1cnccc1N1CCN(c2ncnc3c2cnn3-c2ccccc2)CC1 | 230 |  | 1510
COc1ccccc1N1CCN(c2nnnc3c2cnn3-c2ccccc2)CC1 | > 10000 | > 10000 | > 10000
Fc1cccc(N2CCN(c3ncnc4c3cnn4-c3ccccc3)CC2)c1 | 290 | 1210 | 540

Now those with a lower IC50 [1], led by results:

IC50 [1] [nM] | IC50 [2] [nM] | IC50 [3] [nM] | Structure (SMILES)
150 | 1700 | 170 | COc1cc(C#N)ccc1N1CCN(c2ncnc3c2cnn3-c2ccccc2)CC1
120 | 2500 | 480 | COc1ccccc1N1CCN(c2ncnc3c2cnn3-c2ccccc2)C(C)C1 (stereo not given)
110 | 1200 | 1600 | COc1cccc(F)c1N1CCN(c2ncnc3c2cnn3-c2ccccc2)CC1
100 |  | 340 | COc1ccc(-n2ncc3c(N4CCN(c5ccccc5OC)CC4)ncnc32)cn1
80 | 7000 |  | COc1ccccc1N1CCN(c2ncnc3c2cnn3-c2ncccc2F)CC1
60 | 950 | 70 | COc1cccnc1N1CCN(c2ncnc3c2cnn3-c2ccccc2)CC1
53 | > 10000 | 630 | COc1ccccc1N1CCN(c2ncnc3c2[nH]c(=O)n3-c2ccccc2)CC1
50 | 10000 | 96 | COc1ccccc1N1CCN(c2ncnc3c2cnn3-c2cccc(C)c2)CC1
50 | 1200 | 110 | COc1ccccc1N1CCN(c2ncnc3c2cnn3-c2ccccc2OC)CC1
49 | 3300 | 430 | COc1ccccc1N1CCN(c2ncnc3c2nnn3-c2ccccc2)CC1
39 | 220 | 69 | N#Cc1cccc(N2CCN(c3ncnc4c3cnn4-c3ccccc3)CC2)c1
33 |  | 350 | COc1ccccc1N1CCN(c2ncnc3c2cnn3-c2cccc(C#N)c2)CC1
30 | 880 | 320 | COc1ccccc1N1CCN(c2ncnc3c2cnn3-c2cc(F)ccc2OC)CC1
27 | 3500 | 64 | COc1ccccc1N1CCN(c2ncnc3c2ncn3-c2ccccc2)CC1
20 | > 10000 | 50 | COc1ccc(C#N)cc1N1CCN(c2ncnc3c2cnn3-c2ccccc2)CC1
17 | > 10000 | 46 | COc1ccccc1N1CCN(c2ncnc3c2cnn3-c2ccc(F)cc2)CC1
17 | > 10000 | 200 | COc1ccccc1N1CCN(c2ncnc3c2cnn3-c2ccc(C#N)cc2)CC1
14 | 1400 | 120 | COc1ccccc1N1CCN(c2ncnc3c2cnn3-c2ccccc2)CC1C (stereo not given)
10 | > 10000 | 40 | COc1cc(F)ccc1N1CCN(c2ncnc3c2cnn3-c2ccccc2)CC1
10 | 1000 | 250 | COc1ccccc1N1CCN(c2ncnc3c2cnn3-c2ccccc2C)CC1
9 | 510 | 60 | COc1ccncc1N1CCN(c2ncnc3c2cnn3-c2ccccc2)CC1
8 | > 10000 | 90 | COc1ccccc1N1CCN(c2ncnc3c2cnn3-c2cc(F)cc(F)c2)CC1
7 | 60 | 60 | Oc1ccccc1N1CCN(c2ncnc3c2cnn3-c2ccccc2)CC1
5 | 100 | 37 | COc1ccc(C(N)=O)cc1N1CCN(c2ncnc3c2cnn3-c2ccccc2)CC1
4 | 21 | 8 | COc1ccccc1N1CCCN(c2ncnc3c2cnn3-c2ccccc2)CC1
